Assay results reported in patent US6911470B1, “Polyoxometalate compounds as antiviral agents” (priority 1988, dated 2005).

Key:
[1] = Comparison of toxicity of polyoxometalate compounds in mice (mortality, haematology); assay type: in vivo; set-up: MCV (mean corpuscular volume): unit not given here; conditions: BID × 6, 60 mkd i.p.
Description: Comparison of Toxicity of Polyoxometalate Compounds Mice.
In vivo antiviral experiments. […] Treatment was continued daily for 6 or 10 days.

[2] = system: human granulocyte-macrophage precursor cells; assay type: cell-based
Description: Preparation of Cells. Human bone marrow cells were collected by aspiration from the posterior iliac crest of normal healthy volunteers, treated with heparin and the mononuclear population separated by Ficoll-Hypaque gradient centrifugation. Cells were washed twice in Hanks balanced salt solution, counted with a hemacytometer and their viability was >98% as assessed by trypan blue exclusion.
Assay of Colony-Forming Unit Granulocyte-Macrophage (CFU-GM) for Drug Cytotoxicity. The culture assay for CFU-GM was performed using a bilayer soft-agar method as recently described (Sommadossi et al, Antimicrob. Agents Chemother. 31, 452-454, 1987). McCoy 5A nutrient medium supplemented with 15% dialyzed fetal bovine serum (heat inactivated at 56° C. for 30 min.) (Gibco Laboratories, Grand Island, N.Y.) was used in all experiments. This medium was completely lacking in thymidine and uridine. Cells were cloned in 0.3% agar in the presence of increasing concentrations of the modulating compound or in medium alone (control). After 14 days of incubation at 37° C. in a humidified atmosphere of 5% CO2 in air, colonies (≧50 cells) were counted using an inverted microscope.
The toxicities of a variety of polyoxometalates with respect to human bone marrow cells (human granulocyte-macrophage precursor cells) were assessed.

human PBM cells = test: Cytotoxicity assay on uninfected PHA stimulated human PBMC (trypan blue); assay type: cell-based; conditions: Table 2; >100 μM = Nontoxic; read-out: IC50 Toxicity PBM Cells
Description: Cells. […] PBS), and pelleted at 300×g for 10 minutes. […] Cytotoxicity assay. The drugs were evaluated for their potential toxic effects on uninfected PHA stimulated human PBMC. Flasks were seeded so that the final cell concentration was 2×10^5 cells/ml. The cells were cultured with and without drug for 6 days, at which time aliquots were counted for cell viability, as assessed by the trypan blue dye-exclusion method using a hemacytometer. The median inhibitory concentration (IC50) was calculated using the median effect method (Chou et al, Elsevier-Biosoft, Elsevier Science Publishers, Cambridge, U.K., 1985; Chou et al, Adv. Enz. Regul. 22, 27-55, 1984). Median-effect method. Dose-effect relationships were analyzed by the median-effect equation (Chou et al, Adv. Enz. Regul. 22, 27-55, 1984). The slope (m) and median effective and inhibitory concentration (EC50 and IC50) values were obtained by using a computer program developed by Chou and Chou (Chou et al, Elsevier-Biosoft, Elsevier Science Publishers, Cambridge, U.K., 1985).

[3] = molecular target: T1, HIV-1 reverse transcriptase (Human immunodeficiency virus type 1 group M subtype B, UniProt P04585); test: Evaluation of compounds on purified retroviral RT (cell-free, virion-derived); assay type: biochemical; conditions: Table 2; read-out: EC-50 Cell-Free RT (virion-derived)
T1 construct: HIV-1 RT was isolated from detergent disrupted virions; made in house; host or cells: virions pelleted from culture fluid of HIV-1-infected PHA-stimulated human PBMC; DEAE-cellulose and phosphocellulose chromatography
Description: Evaluation of compounds on purified retroviral RT. HIV-1 RT was isolated from detergent disrupted virions obtained from the cell-free supernatant of infected PHA-stimulated PBMC. The enzyme was purified by passing the extract through ion-exchange chromatography columns, as described previously (Eriksson et al, Antimicrob. Agents Chemother. 31, 600-604, 1977. Briefly, 750 ml of culture fluid harvested from HIV-1-infected PBMC were ultracentrifuged to pellet the virus. The pellet was dissolved in buffer A [50 mM Tris-HCl, pH 7.9/0.25% Nonidet P-40/5 mM dithiothreitol/20% (vol/vol) glycerol] containing 1 mM EDTA, and freeze-thawed four times. After clarification by centrifugation, the enzyme was partially purified from the supernatant by passing the extract through a DEAE-cellulose column (Whatman DE-52; 2.6×15 cm) previously equilibrated with buffer B (50 mM Tris-Cl, pH 7.9, 50 mM KCl, 1 mM EDTA, 1 mM dithiothreitol, 20% glycerol). Elution was performed using a linear gradient 50-500 mM KCl in buffer B. Fractions containing enzyme activity were dialyzed against buffer B and were further purified on a phosphocellulose column (Whatman P-11) using a linear KCl (50-500 mM) gradient in buffer B. The peak fractions were pooled and dialyzed against buffer B. The enzyme was characterized as HIV-1 reverse transcriptase based on its cation, salt, pH, and template requirements according to previous descriptions (Eriksson et al, Antimicrob. Agents Chemother. 31, 600-604, 1977). The standard reaction mixture was used to evaluate the inhibitory effect of the drugs, as previously described (Eriksson et al, Antimicrob. Agents Chemother. 31, 600-604, 1977). Briefly, the reaction mixtures (final volume 100 μl) contained 100 mM Tris-HCl, pH 8.0, 50 mM KCl, 2 mM MgCl2, 5 mM DTT, 400 ug/ml bovine serum albumin, 3 μg/ml (rA)·(dT)12-18 and 1 μM of [^3H]TTP (specific activity 82.3 Ci/mmol). The reactions were started by the addition of 10 μl of partially purified RT, incubated at 37° C. for 60 min., and processed as previously described (Eriksson et al, Antimicrob. Agents Chemother. 31, 600-604, 1977).
Median-effect method. Dose-effect relationships were analyzed by the median-effect equation (Chou et al, Adv. Enz. Regul. 22, 27-55, 1984). The slope (m) and median effective and inhibitory concentration (EC50 and IC50) values were obtained by using a computer program developed by Chou and Chou (Chou et al, Elsevier-Biosoft, Elsevier Science Publishers, Cambridge, U.K., 1985).

HSV-1 = test: Plaque reduction assay for herpes simplex viruses in Vero cells; assay type: cell-based, herpes simplex virus type 1; conditions: Table 2; read-out: EC-50 HSV-1
Description: (§1) Cell culture assays for heroes simplex viruses. Mycoplasma-free Vero cells, obtained from Flow Laboratory (McLean, Va.), were used for the plaque assays. The methodologies for the plaque reduction and cytotoxicity assays have been previously described (Schinazi et al, Antimicrob. Agents Chemother. 22, 499-507, 1982). Median-effect method. Dose-effect relationships were analyzed by the median-effect equation (Chou et al, Adv. Enz. Regul. 22, 27-55, 1984). The slope (m) and median effective and inhibitory concentration (EC50 and IC50) values were obtained by using a computer program developed by Chou and Chou (Chou et al, Elsevier-Biosoft, Elsevier Science Publishers, Cambridge, U.K., 1985).

HSV-2 = test: as above; assay type: cell-based, herpes simplex virus type 2; conditions: Table 2; read-out: EC-50 HSV-2
Description: as §1

Friend, Spleen (EY-10) = test: UV/XC assay for murine retroviruses in SC-1 cells; assay type: cell-based, murine retrovirus; conditions: Table 2; read-out: EC-50 Friend, Spleen (EY-10)
Description: UV/XC Assay for Murine Retroviruses Cells. Mouse embryo fibroblasts (SC-1) and XC cells were obtained from the American Type Culture Collection, Rockville, Md. The XC cell line was derived from a transplantable tumor induced in newborn White-Weston rats by the intramuscular injection of the Prague strain of Rous sarcoma virus. […] The cells were maintained in Eagle's minimum essential medium with Hanks balanced salt solution, supplemented with penicillin (100 U/ml), streptomycin (100 μg/ml), sodium bicarbonate (24 mM), Hepes (25 mM), and either 2 (maintenance) or 10 (growth) percent inactivated newborn or fetal calf serum.
Virus quantitation by UV-XC assay. The XC test (Rowe et al, Virology 42, 1136-1139, 1970) is a plaque-type of assay which tests for the presence and titer of B- and N-tropic murine leukemia viruses. Because these viruses produce no overt signs of infection of SC-1 mouse cells, it is necessary to overlay the virus producing culture with an indicator cell line, XC. The number of syncytia that are produced is a direct measure of the virus titer in FFU.
Six-well plates were seeded with 1×10^5 SC-1 mouse cells on the first day. On the following day the medium was removed and the inoculum (0.2 ml) was added in medium containing polybrene (4 μg/ml). For determining the antiviral activity of the compounds in culture, the virus dilution selected produced in untreated cultures about 80 foci per well. After 1 hour, the virus was removed and various concentrations of the drug were added. The plates were replenished with medium on the third and fifth days. The medium was removed on the eighth day and the cells exposed to UV irradiation (60 erg/mm^2 per sec) for 30 seconds. Medium containing 10^6 XC cells was then added to each plate. On the eleventh day, the plates were fixed with 10% buffered Formalin and stained with crystal violet. Comparison of the number of foci to those found in virus-infected cells receiving no drug allowed determination of whether a drug at a particular concentration was effective. Control cells without virus but receiving the drug provided an estimate of the drug's toxic effects as quantitated by using trypan blue staining.

Vero cells = test: Cytotoxicity assay in Vero cells; assay type: cell-based; conditions: Table 2; >100 μM = Nontoxic; read-out: IC50 Toxicity Vero Cells
Description: Cell culture assays for heroes simplex viruses. Mycoplasma-free Vero cells, obtained from Flow Laboratory (McLean, Va.), were used for the plaque assays. The methodologies for the plaque reduction and cytotoxicity assays have been previously described (Schinazi et al, Antimicrob. Agents Chemother. 22, 499-507, 1982).

| Substance | Hct (hematocrit) ([1]; bled on day 17) | Hgb (hemaglobin) ([1]; bled on day 17) | MCH ([1]; bled on day 17) | MCHC (mean corpuscular hemoglobin concentration) ([1]; bled on day 17) | MCV (mean corpuscular volume) ([1]; bled on day 17) | PLT (platelates) (×1000) ([1]; bled on day 17) | RBC (×1000000) ([1]; bled on day 17) | RDW (width of red cells) ([1]; bled on day 17) | WBC (×1000) ([1]; bled on day 17) | Mortality ([1]; dead/total) | toxicity to human bone marrow cells (order of toxicity, FIG. 6) [2] | IC50 (human PBM cells) | EC50 [3] | EC50 (HSV-1) | EC50 (HSV-2) | EC50 (Friend, Spleen (EY-10)) | IC50 (Vero cells) |
| --- | --- | --- | --- | --- | --- | --- | --- | --- | --- | --- | --- | --- | --- | --- | --- | --- | --- |
| (NH4)4[SiW12O40] [NH4ST] | 17.47 ± 7.08% | 6.42 ± 2.39 g/dL | 17.6 ± 4.64 pg | 37.92 ± 9.82 g/dL | 43.38 ± 0.51 | 246.46 ×1000 | 3.76 ± 1.57 ×1000000 | 36.76 ± 2.63% | 7.18 ± 3.9 ×1000 | 0/5 | NH4BT (least toxic)<BT and NH4ST<AZT and ST | – | – | – | – | – | – |
| (LysH^+)q(H^+)5-qST, where q=1-5 [(LYSH^+)nH^+(4−n)ST] | – | – | – | – | – | – | – | – | – | – | – | 2450 µM | 20.5 µM | 0.32 µM | < 1 µM | 0.95 µM | > 100 µM |
